The source of these data is US9328122B2, “7-substituted Hanfangichin B derivative, and preparation method and use thereof” (HANGZHOU BENSHENG PHARMACEUTICAL CO., LTD., priority 2012, dated 2016).

Converted amounts (≈) assume the structure as drawn.

In the first test the test system is RKO (human colon adenocarcinoma) cells. In words: MTT cell growth inhibition, solid tumor cells. The following applies: Homo sapiens; RKO, 72 h, MTT; read-out: IC90. It is filed as cell-based. An excerpt: (§1) Hep-2 (laryngeal carcinoma), A549 (human lung cancer), CaES-17 (esophageal cancer cell), PC-3 (prostate cancer), CNE (nasopharyngeal carcinoma cell) and SK-OV-3 (ovarian cancer cell), all of which were purchased from China Center For Type Culture Collection; RKO (human colon adenocarcinoma cell), MGC-803 (human gastric cancer cell), MG-63 (osteosarcoma), and U87-MG (malignant glioma cell), all of which were purchased from Fuxiang Bio-tech Co. Ltd., Shanghai, China; PANC-1 (pancreatic cancer), Becap37 (human breast cancer cell), Hela (human cervical cancer cell) and Hep G2 (human liver cancer cell), all of which were donated by Cancer Research Institute of Zhejiang University, China.
(§2) 6000 well-growing human solid tumor cells were obtained and inoculated into wells of a 96-well cell culture plate. The culture medium was DMEM High Glucose cell culture medium containing 10% fetal bovine serum. The plate was placed in a carbon dioxide cell incubator (5% CO2) at 37° C. and incubated for 24 hours. After added with 7-substituted fangchinoline derivatives of different concentration and mixing uniformly, the plate was placed in a carbon dioxide cell incubator (5% CO2) at 37° C. and incubated for 72 hours. Then the viable cell concentration was determined by the MTT method.
As a reminder, the IC90 is the point of the concentration-response curve where the effect stands at 90%. `COc1ccc2cc1Oc1ccc(cc1)C[C@H]1c3cc(c(OC)cc3CCN1C)Oc1c(OS(=O)(=O)c3ccccc3)c(OC)cc3c1[C@H](C2)N(C)CC3` [BS-FC-104]: the IC90 amounted to 1.76 µg/mL (≈ 2.35 µM).

The next test concerns Hela (human cervical cancer) cells. In words: MTT cell growth inhibition, solid tumor cells. Conditions: Homo sapiens; Hela, 72 h, MTT; read-out: IC50. The test is classed as cell-based.
Description: as §1, §2
The term IC50 denotes the concentration at which inhibition is half-maximal. Consider `COc1ccc2cc1Oc1ccc(cc1)C[C@H]1c3cc(c(OC)cc3CCN1C)Oc1c(OS(=O)(=O)c3ccccc3)c(OC)cc3c1[C@H](C2)N(C)CC3` [BS-FC-104], for which the IC50 is 1 µg/mL (≈ 1.34 µM).

Staying with this test, now noted: Homo sapiens; Hela, 72 h, MTT; read-out: IC90.
Consider `COc1ccc2cc1Oc1ccc(cc1)C[C@H]1c3cc(c(OC)cc3CCN1C)Oc1c(OS(=O)(=O)c3ccccc3)c(OC)cc3c1[C@H](C2)N(C)CC3` [BS-FC-104], for which the IC90 amounted to 3.42 µg/mL (≈ 4.57 µM).

The next test has as its system MG-63 (osteosarcoma) cells. Nature of the test: MTT cell growth inhibition, solid tumor cells. The test is classed as cell-based. The following applies: Homo sapiens; MG-63, 72 h, MTT; read-out: IC50.
Description: as §1, §2
`COc1ccc2cc1Oc1ccc(cc1)C[C@H]1c3cc(c(OC)cc3CCN1C)Oc1c(OS(=O)(=O)c3ccccc3)c(OC)cc3c1[C@H](C2)N(C)CC3` [BS-FC-104]: the IC50 was found to be 2.71 µg/mL (≈ 3.62 µM).

Still in this test, the particulars now being: Homo sapiens; MG-63, 72 h, MTT; read-out: IC90.
On to `COc1ccc2cc1Oc1ccc(cc1)C[C@H]1c3cc(c(OC)cc3CCN1C)Oc1c(OS(=O)(=O)c3ccccc3)c(OC)cc3c1[C@H](C2)N(C)CC3` [BS-FC-104], for which the IC90 came to 3.88 µg/mL (≈ 5.18 µM).

For the next test, the system named is RPMI 8226 (multiple myeloma) cells. In words: MTT cell growth inhibition, multiple myeloma cells. It is filed as cell-based, human. Conditions: Homo sapiens; RPMI 8226, 72 h, MTT; read-out: IC50. The protocol:
Myeloma cell lines: RPMI8226 (multiple myeloma), purchased from Fuxiang Bio-tech Co. Ltd., Shanghai, China.
6000 well-growing cells were obtained and inoculated into wells of a 96-well cell culture plate. The culture medium was a RPMI-1640 cell culture medium containing 10% fetal bovine serum. After adding the 7-substituted fangchinoline derivatives of different concentrations the next day and mixing uniformly, the plate was placed in a carbon dioxide cell incubator (5% CO2) at 37° C. and incubated for 72 hours. Then the viable cell concentration was determined by the MTT method.
With `COc1ccc2cc1Oc1ccc(cc1)C[C@H]1c3cc(c(OC)cc3CCN1C)Oc1c(OS(=O)(=O)c3ccccc3)c(OC)cc3c1[C@H](C2)N(C)CC3` [BS-FC-104], the IC50 worked out at 0.12 µg/mL (≈ 0.16 µM).

The test is the same for the next values; noted with them: Homo sapiens; RPMI 8226, 72 h, MTT; read-out: IC90.
As to `COc1ccc2cc1Oc1ccc(cc1)C[C@H]1c3cc(c(OC)cc3CCN1C)Oc1c(OS(=O)(=O)c3ccccc3)c(OC)cc3c1[C@H](C2)N(C)CC3` [BS-FC-104], the IC90 was 0.5 µg/mL (≈ 0.668 µM).

The next test relates to tumor. In words: Antitumor activity compared with fangchinoline, overall statement. The test is classed as cell-based. The following applies: tumor type not specified.
As for `COc1ccc2cc1Oc1ccc(cc1)C[C@H]1c3cc(c(OC)cc3CCN1C)Oc1c(OS(=O)(=O)c3ccccc3)c(OC)cc3c1[C@H](C2)N(C)CC3` [BS-FC-104], the “antitumor activity compared with that of fangchinoline” value was “significantly superior”.

Another test has as its system CNE (nasopharyngeal carcinoma) cells. In words: MTT cell growth inhibition, solid tumor cells. It is filed as cell-based, human. Conditions: Homo sapiens; CNE, 72 h, MTT; read-out: IC50.
Description: as §1, §2
Regarding `COc1ccc2cc1Oc1ccc(cc1)C[C@H]1c3cc(c(OC)cc3CCN1C)Oc1c(OS(=O)(=O)c3ccccc3)c(OC)cc3c1[C@H](C2)N(C)CC3` [BS-FC-104], the IC50 was determined as 2.5 µg/mL (≈ 3.34 µM).

Staying with this test, now noted: Homo sapiens; CNE, 72 h, MTT; read-out: IC90.
For the compound `COc1ccc2cc1Oc1ccc(cc1)C[C@H]1c3cc(c(OC)cc3CCN1C)Oc1c(OS(=O)(=O)c3ccccc3)c(OC)cc3c1[C@H](C2)N(C)CC3` [BS-FC-104], the IC90 was 4.9 µg/mL (≈ 6.54 µM).

A further test concerns SK-OV-3 (ovarian cancer) cells. In words: MTT cell growth inhibition, solid tumor cells. It is filed as cell-based, human. The following applies: Homo sapiens; SK-OV-3, 72 h, MTT; read-out: IC50.
Description: as §1, §2
As for `COc1ccc2cc1Oc1ccc(cc1)C[C@H]1c3cc(c(OC)cc3CCN1C)Oc1c(OS(=O)(=O)c3ccccc3)c(OC)cc3c1[C@H](C2)N(C)CC3` [BS-FC-104], the IC50 amounted to 1.88 µg/mL (≈ 2.51 µM).

Still in this test, the particulars now being: Homo sapiens; SK-OV-3, 72 h, MTT; read-out: IC90.
With `COc1ccc2cc1Oc1ccc(cc1)C[C@H]1c3cc(c(OC)cc3CCN1C)Oc1c(OS(=O)(=O)c3ccccc3)c(OC)cc3c1[C@H](C2)N(C)CC3` [BS-FC-104], the IC90 is 3.79 µg/mL (≈ 5.06 µM).

The next test has as its system PC-3 (prostate cancer) cells. Nature of the test: MTT cell growth inhibition, solid tumor cells. It is filed as cell-based, human. Conditions: Homo sapiens; PC-3, 72 h, MTT; read-out: IC50.
Description: as §1, §2
As for `COc1ccc2cc1Oc1ccc(cc1)C[C@H]1c3cc(c(OC)cc3CCN1C)Oc1c(OS(=O)(=O)c3ccccc3)c(OC)cc3c1[C@H](C2)N(C)CC3` [BS-FC-104], the IC50 stood at 2.5 µg/mL (≈ 3.34 µM).

The test is the same for the next values; noted with them: Homo sapiens; PC-3, 72 h, MTT; read-out: IC90.
As for `COc1ccc2cc1Oc1ccc(cc1)C[C@H]1c3cc(c(OC)cc3CCN1C)Oc1c(OS(=O)(=O)c3ccccc3)c(OC)cc3c1[C@H](C2)N(C)CC3` [BS-FC-104], the IC90 came out at 5.51 µg/mL (≈ 7.36 µM).

In another test the test system is CaEs-17 (esophageal cancer) cells. In words: MTT cell growth inhibition, solid tumor cells. The test is classed as cell-based, human. Conditions: Homo sapiens, CaEs17; CaEs-17, 72 h, MTT; read-out: IC50.
Description: as §1, §2
As for `COc1ccc2cc1Oc1ccc(cc1)C[C@H]1c3cc(c(OC)cc3CCN1C)Oc1c(OS(=O)(=O)c3ccccc3)c(OC)cc3c1[C@H](C2)N(C)CC3` [BS-FC-104], the IC50 worked out at 2 µg/mL (≈ 2.67 µM).

Staying with this test, now noted: Homo sapiens, CaEs17; CaEs-17, 72 h, MTT; read-out: IC90.
Regarding `COc1ccc2cc1Oc1ccc(cc1)C[C@H]1c3cc(c(OC)cc3CCN1C)Oc1c(OS(=O)(=O)c3ccccc3)c(OC)cc3c1[C@H](C2)N(C)CC3` [BS-FC-104], the IC90 came to 7.42 µg/mL (≈ 9.91 µM).

For the next test, the system named is PANC-1 (pancreatic cancer) cells. In words: MTT cell growth inhibition, solid tumor cells. It is filed as cell-based, human. The following applies: Homo sapiens; PANC-1, 72 h, MTT; read-out: IC50.
Description: as §1, §2
As for `COc1ccc2cc1Oc1ccc(cc1)C[C@H]1c3cc(c(OC)cc3CCN1C)Oc1c(OS(=O)(=O)c3ccccc3)c(OC)cc3c1[C@H](C2)N(C)CC3` [BS-FC-104], the IC50 was 2.01 µg/mL (≈ 2.68 µM).

Still in this test, the particulars now being: Homo sapiens; PANC-1, 72 h, MTT; read-out: IC90.
`COc1ccc2cc1Oc1ccc(cc1)C[C@H]1c3cc(c(OC)cc3CCN1C)Oc1c(OS(=O)(=O)c3ccccc3)c(OC)cc3c1[C@H](C2)N(C)CC3` [BS-FC-104]: the IC90 was found to be 10.8 µg/mL (≈ 14.4 µM).
